For data set [1] the following is noted: Crystal; DTA.
Data set [2] is described as follows: Molar enthalpy of transition or fusion. The following applies: Crystal; DSC.

SMILES strings stand for the structures. Numbers after ± are expanded uncertainties.

Take `COc1ccc2c(c1)c(CC(=O)O)c(C)n2C(=O)c1ccc(Cl)cc1`: the Normal melting temperature in data set [1] amounted to 160.0 ± 1.1 °C. In data set [2], the “Molar enthalpy of transition or fusion” value came out at 37.9 ± 2.4 kJ/mol.
The like results for `NC(=O)c1cccnc1` [3-pyridinecarboxamide] were, in that order, 128.6 ± 1.1 °C and 22.6 ± 1.4 kJ/mol.

These data come from the NIST ThermoML archive (doi:10.1016/j.jct.2015.01.015).
